Biological target: T1, Human M4 (Homo sapiens, UniProt P08173)
T1 construct: expressed in transfected cells; host or cells: CHO-K1 (ATCC), stably co-expressing chimeric G protein Gqi5
T1 sequence (P08173 1-479): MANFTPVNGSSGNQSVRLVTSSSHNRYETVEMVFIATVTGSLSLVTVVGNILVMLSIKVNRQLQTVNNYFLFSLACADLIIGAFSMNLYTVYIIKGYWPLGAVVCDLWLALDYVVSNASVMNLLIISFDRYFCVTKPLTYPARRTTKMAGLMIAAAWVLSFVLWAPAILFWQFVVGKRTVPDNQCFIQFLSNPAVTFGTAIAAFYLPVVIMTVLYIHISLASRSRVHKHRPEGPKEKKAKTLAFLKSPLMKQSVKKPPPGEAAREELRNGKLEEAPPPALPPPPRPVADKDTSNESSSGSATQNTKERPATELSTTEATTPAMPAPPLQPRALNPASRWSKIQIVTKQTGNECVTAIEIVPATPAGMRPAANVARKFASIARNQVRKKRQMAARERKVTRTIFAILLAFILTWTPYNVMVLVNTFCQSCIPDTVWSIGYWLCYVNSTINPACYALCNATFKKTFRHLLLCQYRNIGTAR
Experiment: mAChR M4 cell-based functional assay (calcium flux, antagonist mode)
Details: for remaining activity at 30 µM: % ACh maximum at 30 μM, read-out: Emin; for IC50: M4/Gqi5/CHO-K1 cells, concentration-dependent decrease of the EC80 acetylcholine response
Method: Human or rat M4 cDNA, along with the chimeric G protein Gqi5, were transfected into Chinese hamster ovary (CHO-K1) cells purchased from the American Type Culture Collection using Lipofectamine2000. M4/Gqi5/CHO cells were grown in Ham's F-12 medium containing 10% heat-inactivated fetal bovine serum (FBS), 20 mM HEPES, 500 μg/mL G418 sulfate, and 200 μg/mL Hygromycin B.
For high throughput measurement of agonist-evoked increases in intracellular calcium, CHO-K1 cells stably expressing muscarinic receptors were plated in growth medium lacking G418 and hygromycin at 15,000 cells/20 μL/well in Greiner 384-well black-walled, tissue culture (TC)-treated, clear-bottom plates (VWR). Cells were incubated overnight at 37° C. and 5% CO2. The next day, cells were washed using an ELX 405 (BioTek) with assay buffer; the final volume was then aspirated to 20 μL, Next, 20 μL of a 2.3 μM stock of Fluo-4/acetoxymethyl ester (Invitrogen, Carlsbad, Calif.), prepared as a 2.3 μM stock in DMSO, mixed in a 1:1 ratio with 10% (w/v) Pluronic F-127 and diluted in assay buffer, was added to the wells and the cell plates were incubated for 50 min at 37° C. and 5% CO2. Dye was removed by washing with the ELX 405 and the final volume was aspirated to […]. Compound master plates were formatted in a 10 point concentration-response curve (CRC) format (1:3 dilutions) in 100% DMSO with a starting concentration of 10 or 1 mM using a BRAVO liquid handler (Agilent). Test compound CRCs were then transferred to daughter plates (240 nL) using the Echo acoustic plate reformatter (Labcyte, Sunnyvale, Calif.) and then diluted into assay buffer (40 μL) to a 2× stock using a Thermo Fisher Combi (Thermo Fisher Scientific, Waltham, Mass.).
Calcium flux was measured using the Functional Drug Screening System (FDSS) 6000 or 7000 (Hamamatsu Corporation, Tokyo, Japan) as an increase in the fluorescent static ratio. Compounds were applied to cells (20 μL, 2×) using the automated system of the FDSS at 2 seconds into the protocol and the data were collected at 1 Hz. At 143 s, 10 μL of an EC20 concentration of the muscarinic receptor agonist acetylcholine was added (5×), followed by the addition of 12 μL of an EC80 concentration of acetylcholine at the 268 s time point (5×). Agonist activity was analyzed as a concentration-dependent increase in calcium mobilization upon compound addition. Positive allosteric modulator activity was analyzed as a concentration-dependent increase in the EC20 acetylcholine response. Antagonist activity was analyzed as a concentration-dependent decrease in the EC80 acetylcholine response; for the purposes of the tables herein, an […] (inhibitory concentration 50) was calculated as a concentration-dependent decrease of the response elicited by an EC80 concentration of acetylcholine. Concentration-response curves were generated using a four-parameter logistical equation in XLFit curve fitting software (IDBS, Bridgewater, N.J.) for Excel (Microsoft, Redmond, Wash.) or Prism (GraphPad Software, Inc., San Diego, Calif.) or the Dotmatics software platform (Dotmatics, Bishop's Stortford, UK).
Compounds were synthesized as described above. Activity (IC50 and Emin) was determined in the mAChR M4 cell-based functional assay as described above and the data are shown in Table 4.

SMILES	remaining activity at 30 µM	IC50
Cc1cnn(C)c1-c1ccc(OC2CC3(CCN(Cc4ccccc4)CC3)C2)nn1 [Compound 37, 7-benzyl-2-[6-(2,4-dimethylpyrazol-3-yl)pyridazin-3-yl]oxy-7-azaspiro[3.5]nonane]	10.8%	3450 nM
Cc1cnn(C)c1-c1ccc(OC2CC3(CCN(CC4CCCCC4)CC3)C2)nn1 [Compound 34, 7-(cyclohexylmethyl)-2-[6-(2,4-dimethylpyrazol-3-yl)pyridazin-3-yl]oxy-7-azaspiro[3.5]nonane]	4.38%	850 nM
Fc1ccc(Cl)c(-c2ccc(OCC3CC4(CCN(CC5CCOCC5)CC4)C3)nn2)c1 [Compound 64, 2-[[6-(2-chloro-5-fluoro-phenyl)pyridazin-3-yl]oxymethyl]-7-(tetrahydropyran-4-ylmethyl)-7-azaspiro[3.5]nonane]	6.61%	1310 nM
Cc1cnn(C)c1-c1ccc(OC2CC3(CCN(CC4CCOCC4)CC3)C2)nn1 [Compound 35, 2-[6-(2,4-dimethylpyrazol-3-yl)pyridazin-3-yl]oxy-7-(tetrahydropyran-4-ylmethyl)-7-azaspiro[3.5]nonane]	17.8%	6370 nM
Cc1nn(C)cc1-c1ccc(NCC2CC3(CCN(CC4CCCCC4)CC3)C2)nn1 [Compound 50, N-[[7-(cyclohexylmethyl)-7-azaspiro[3.5]nonan-2-yl]methyl]-6-(1,3-dimethylpyrazol-4-yl)pyridazin-3-amine]	6.19%	1160 nM
Fc1ccc(Cl)c(-c2ccc(OCC3CC4(CCN(CC5CCCCC5)CC4)C3)nn2)c1 [Compound 62, 2-[[6-(2-chloro-5-fluoro-phenyl)pyridazin-3-yl]oxymethyl]-7-(cyclohexylmethyl)-7-azaspiro[3.5]nonane]	6.14%	1490 nM
Fc1ccc(Cl)c(-c2ccc(OCC3CC4(CCN(CC5CCCOC5)CC4)C3)nn2)c1 (centres unmarked) [Compound 63, 2-[[6-(2-chloro-5-fluoro-phenyl)pyridazin-3-yl]oxymethyl]-7-(tetrahydropyran-3-ylmethyl)-7-azaspiro[3.5]nonane]	7.8%	2130 nM
Cc1nn(C)cc1-c1ccc(OC2CC3(CCN(CC4CCOCC4)CC3)C2)nn1 [Compound 27, 2-[6-(1,3-dimethylpyrazol-4-yl)pyridazin-3-yl]oxy-7-(tetrahydropyran-4-ylmethyl)-7-azaspiro[3.5]nonane]	11.6%	4430 nM
Fc1ccc(Cl)c(-c2ccc(OCC3CC4(CCN(Cc5ccccc5)CC4)C3)nn2)c1 [Compound 65, 7-benzyl-2-[[6-(2-chIoro-5-fluoro-phenyl)pyridazin-3-yl]oxymethyl]-7-azaspiro[3.5]nonane]	6.28%	2660 nM
Cc1cccnc1CN1CCC2(CC1)CC(Oc1ccc(-c3cc(F)ccc3Cl)nn1)C2 [Compound 23, 2-[6-(2-chloro-5-fluoro-phenyl)pyridazin-3-yl]oxy-7-[(3-methyl-2-pyridyl)methyl]-7-azaspiro[3.5]nonane]	3.36%	900 nM
Cc1nn(C)cc1-c1ccc(OC2CC3(CCN(CC4CCSCC4)CC3)C2)nn1 [Compound 29, 2-[6-(1,3-dimethylpyrazol-4-yl)pyridazin-3-yl]oxy-7-(tetrahydrothiopyran-4-ylmethyl)-7-azaspiro[3.5]nonane]	5.29%	1170 nM
COc1cccc(CN2CCC3(CC2)CC(CNc2ccc(-c4cc(F)ccc4Cl)nn2)C3)n1 [Compound 48, 6-(2-chloro-5-fluoro-phenyl)-N-[[7-[(6-methoxy-2-pyridyl)methyl]-7-azaspiro[3.5]nonan-2-yl]methyl]pyridazin-3-amine]	4.48%	1740 nM
Fc1ccc(Cl)c(-c2ccc(NCC3CC4(CCN(CC5CCCCC5)CC4)C3)nn2)c1 [Compound 42, 6-(2-chloro-5-fluoro-phenyl)-N-[[7-(cyclohexylmethyl)-7-azaspiro[3.5]nonan-2-yl]methyl]pyridazin-3-amine]	6.27%	3140 nM

The next compounds have a lower IC50 than those just listed; values first:

remaining activity at 30 µM	IC50	SMILES
3.87%	250 nM	Cc1cnn(C)c1-c1ccc(OC2CC3(CCN(CC(C)C(C)(C)C)CC3)C2)nn1 (centres unmarked) [Compound 33, 2-[6-(2,4-dimethylpyrazol-3-yl)pyridazin-3-yl]oxy-7-(2,3,3-trimethylbutyl)-7-azaspiro[3.5]nonane]
3.1%	210 nM	Cc1nn(C)cc1-c1ccc(OC2CC3(CCN(CC(C)C(C)(C)C)CC3)C2)nn1 (centres unmarked) [Compound 25, 2-[6-(1,3-dimethylpyrazol-4-yl)pyridazin-3-yl]oxy-7-(2,3,3-triniethylbutyl)-7-azaspiro[3.5]nonane]
3.95%	210 nM	Cc1cnn(C)c1-c1ccc(NC2CC3(CCN(CC4CCSCC4)CC3)C2)nn1 [Compound 11, N-[6-(2,4-dimethylpyrazol-3-yl)pyridazin-3-yl]-7-(tetrahydrothiopyran-4-ylmethyl)-7-azaspiro[3.5]nonan-2-amine]
3.96%	160 nM	Cc1cnn(C)c1-c1ccc(OC2CC3(CCN(CC4CC5C=CC4C5)CC3)C2)nn1 (centres unmarked) [Compound 32, 7-(5-bicyclo[2.2.1]hept-2-enylmethyl)-2-[6-(2,4-dimethylpyrazol-3-yl)pyridazin-3-yl]oxy-7-azaspiro[3.5]nonane]
3.07%	180 nM	Fc1ccc(Cl)c(-c2ccc(OC3CC4(CCN(CC5CC6C=CC5C6)CC4)C3)nn2)c1 (centres unmarked) [Compound 16, 7-(5-bicyclo[2.2.1]hept-2-enylmethyl)-2-[6-(2-chloro-5-fluoro-phenyl)pyridazin-3-yl]oxy-7-azaspiro[3.5]nonane]
3.64%	300 nM	Cc1nn(C)cc1-c1ccc(NCC2CC3(CCN(CC45CC6CC(CC(C6)C4)C5)CC3)C2)nn1 [Compound 57, N-[[7-(1-adamantylmethyl)-7-azaspiro[3.5]nonan-2-yl]methyl]-6-(1,3-dimethylpyrazol-4-yl)pyridazin-3-amine]
4.43%	630 nM	Cc1nn(C)cc1-c1ccc(OC2CC3(CCN(CC4CCCCC4)CC3)C2)nn1 [Compound 26, 7-(cyclohexylmethyl)-2-[6-(1,3-dimethylpyrazol-4-yl)pyridazin-3-yl]oxy-7-azaspiro[3.5]nonane]
4.66%	730 nM	Fc1ccc(Cl)c(-c2ccc(NCC3CC4(CCN(CC5CCOCC5)CC4)C3)nn2)c1 [Compound 44, 6-(2-chloro-5-fluoro-phenyl)-N-[[7-(tetrahydropyran-4-ylmethyl)-7-azaspiro[3.5]nonan-2-yl]methyl]pyridazin-3-amine]
3.01%	330 nM	CC(C)(C)CCN1CCC2(CC1)CC(Oc1ccc(-c3cc(F)ccc3Cl)nn1)C2 [Compound 15, 2-[6-(2-Chloro-5-fluoro-phenyl)pyridazin-3-yl]oxy-7-(3,3-dimethylbutyl)-7-azaspiro[3.5]nonane]

Reference: US11149022B2, “Antagonists of the muscarinic acetylcholine receptor M4” (Vanderbilt University, priority 2017, dated 2021)
